# Source: patent publication US20200031811A1, “SUBSTITUTED MONO- AND POLYAZANAPHTHALENE DERIVATIVES AND THEIR USE” (Basilea Pharmaceutica International AG, priority 2015, published 2020)
# Where a name gives a salt, the structure may show the parent alone.
# Columns and labels:
# [1] = test system: human pancreatic cancer cell line MiaPaCa2 (ATCC CRL-1420); experiment: Cell growth assay (CellTiterGlo, 72 hours); format: cell-based; details: for IC50: MIA PaCa-2, MiaPaCa2 cells, 72 hours, read-out: IC50 MiaPaCa; for inhibition at 100 µM: MIA PaCa-2, at 100 μM; for inhibition at 100 µM / inhibition at 50 µM: read-out: Inhibition of MiaPaCa growth at indicated concentration; for inhibition at 50 µM: MIA PaCa-2, at 50 μM
# Protocol: The inhibition of cell growth by the compounds was tested by exposing the human pancreatic cancer cell line MiaPaCa2 (ATCC CRL-1420) to the compounds. The assay was performed in 384 well clear bottom white microtiter plates (Greiner #781098). Each well was seeded with 10^3 cells in 20 μl of Dulbecco's modified Eagle's medium (Sigma D6796) supplied with 10% fetal calf scrum (Sigma F7524), 2.5% horse serum (Sigma H0146), 1% Penicillin-Streptomycin (Sigma P0781), 1% MEM nonessential amino acid solution 100× (Sigma M71459) and 1% 200 mM L-Glutamine (Sigma G7513) culture medium. After overnight incubation at 37° C. in 5% CO2 the compounds were added in the following concentrations: 100, 50, 20, 10, 5, 2, 1, 0.5, 0.2 and 0.1 μM. Each compound concentration was tested in quadruplicate. The incubation was then continued for 72 hours. After 72 hours the growth of the cells was assessed by the addition of the CellTiterGlo reagent (Promega G9242) as instructed by the provider. The luminescent signal was recorded on a SpectraMax M2 microplate reader. The signal obtained in wells containing cells cultivated in the absence of compound was set to 100% growth after subtracting the signal obtained in medium only wells. The % growth in each well was calculated by subtracting the medium only value and dividing through the 100% growth value. The IC50 for cell growth, the concentration of compound at which cell growth was reduced to 50%, was calculated with the GraFit6 software (Erythacus software).
# MNK1 = molecular target: T1, MNK1 (Homo sapiens, UniProt Q9BUB5); experiment: MNK inhibition assay (Z-Lyte kinase assay, Ser/Thr 7 peptide); format: biochemical; details: for IC50: recombinant GST-MNK1, 3 hours at 31° C.; for inhibition at 1 µM / inhibition at 10 µM: read-out: Inhibition of MNK1 activity at indicated concentration
# T1 construct: purchased Life Technologies or Carna Biosciences PV6023 or 02-145; host or cells: baculovirus infected insect cells
# T1 sequence (Q9BUB5 whole entry): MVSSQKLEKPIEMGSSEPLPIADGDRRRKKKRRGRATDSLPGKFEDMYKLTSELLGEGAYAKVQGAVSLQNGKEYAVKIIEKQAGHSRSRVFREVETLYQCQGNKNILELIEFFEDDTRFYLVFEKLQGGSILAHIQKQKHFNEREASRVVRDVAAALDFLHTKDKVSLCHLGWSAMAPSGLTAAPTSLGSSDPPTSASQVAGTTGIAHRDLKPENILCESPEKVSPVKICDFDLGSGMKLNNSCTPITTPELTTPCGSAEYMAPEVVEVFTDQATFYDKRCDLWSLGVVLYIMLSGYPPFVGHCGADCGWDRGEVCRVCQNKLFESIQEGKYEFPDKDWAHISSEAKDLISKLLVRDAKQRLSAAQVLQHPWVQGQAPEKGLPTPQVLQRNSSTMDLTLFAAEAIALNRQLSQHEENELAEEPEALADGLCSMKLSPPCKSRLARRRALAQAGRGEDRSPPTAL
# Description: For the measurement of the activity of the MNK1 kinase the Z-Lyte kinase assay system was used. The kinase activity of MNK1 can be quantified with the Z-Lyte kinase assay kit Ser/Thr 7 peptide (Life Technologies PV3180). The kit was utilized according to the instructions of the provider. A recombinant GST-MNK1 fusion protein produced in and purified from baculovirus infected insect cells was used as enzyme source (GST-MNK1 Life Technologies PV6023 or Carna Biosciences 02-145). It was verified that both sources of the MNK1 enzyme gave similar IC50 values with several compounds. The MNK1 enzyme assay was performed in 384 well round bottom black microtiter plates (Corning 3676). The kinase reaction was performed for 3 hours at 31° C. As instructed by the provider of the kit the amount of enzyme was chosen such that ˜30% of the substrate peptide was phosphorylated in control wells containing buffer only. The MNK1 inhibiting activity of compounds was tested by adding the compounds to the kinase reaction at a concentration of 10000, 5000, 2000, 1000, 500, 200, 100, 50 nM. Compounds with strong MNK1 inhibition were tested at 20, 10, 5, 2, 1 and 0.5 nM in addition. Each compound concentration was tested at least in duplicate. The % phosphorylation of the substrate peptide at each compound concentration was calculated as described in the assay manual. The fluorescent signals were recordes on Biotek Cytation 3 microplate reader. The IC50, the concentration that reduced substrate phosphorylation by 50% if compared to buffer only wells, was calculated with the Grafit 6 software (Erythacus software).
Structure (SMILES),IC50 [1],IC50 (MNK1),also measured
"NC1CCN(Cc2ccc3cncc(-c4cc5ccccc5o4)c3c2)CC1 [Example 1, 1-[[4-(Benzofuran-2-yl)-6-isoquinolyl]methyl]piperidin-4-amine]",3.54 µM,0.11 µM,
NC1CCN(Cc2ccc3cncc(-c4cc5ccccc5[nH]4)c3c2)CC1 [Example 6],6.05 µM,0.917 µM,
N#Cc1ccccc1-c1cncc2ccc(CN3CCC(N)CC3)cc12 [Example 8],,,inhibition at 10 µM (MNK1): 95%
COC(=O)c1cccc(-c2cncc3ccc(CN4CCC(N)CC4)cc23)c1 [Example 12],,,inhibition at 100 µM [1]: 60%; inhibition at 10 µM (MNK1): 92%
NC1CCN(Cc2ccc3cncc(-c4cccnc4)c3c2)CC1 [Example 14],,,inhibition at 50 µM [1]: 52%; inhibition at 1 µM (MNK1): 34%
NC1CCN(Cc2ccc3cncc(-c4ccccn4)c3c2)CC1 [Example 15],,3.96 µM,
Nc1ccc(-c2cncc3ccc(CN4CCC(N)CC4)cc23)cn1 [Example 17],,,inhibition at 50 µM [1]: 61%; inhibition at 10 µM (MNK1): 100%
"NC(=O)c1ccc(-c2cncc3ccc(CN4CCC(N)CC4)cc23)cc1 [Example 20, 4-[6-[(4-Amino-1-piperidyl)methyl]-4-isoquinolyl]benzamide]",,,inhibition at 100 µM [1]: 62%; inhibition at 1 µM (MNK1): 45%
NC(=O)c1cccc(-c2cncc3ccc(CN4CCC(N)CC4)cc23)c1 [Example 21],,,inhibition at 100 µM [1]: 64%; inhibition at 1 µM (MNK1): 49%
"O=C1CN(Cc2ccc3cncc(-c4ccc(O)cc4)c3c2)CCN1 [Example 22, 4-[[4-(4-Hydroxyphenyl)-6-isoquinolyl]methyl]piperazin-2-one]",,0.662 µM,inhibition at 100 µM [1]: 69%
Oc1ccc(-c2cncc3ccc(CN4CCC(O)CC4)cc23)cc1 [Example 23],30.6 µM,2.36 µM,
NCCNCc1ccc2cncc(-c3ccc(O)cc3)c2c1 [Example 24],45.5 µM,0.926 µM,
NCCCNCc1ccc2cncc(-c3ccc(O)cc3)c2c1 [Example 25],14.6 µM,0.166 µM,
Oc1ccc(-c2cncc3ccc(CN4CCOCC4)cc23)cc1 [Example 26],54.3 µM,,inhibition at 1 µM (MNK1): 40%
"NC1CCN(C(=O)c2ccc3cncc(-c4ccc(O)cc4)c3c2)CC1 [Example 28, (4-Amino-1-piperidyl)-[4-(4-hydroxyphenyl)-6-isoquinolyl]methanone]",47.6 µM,0.353 µM,
"NC1CCN(Cc2ccc3cncc(-c4ccc(C(=O)O)cc4)c3c2)CC1 [Example 29, 4-[6-[(4-Amino-1-piperidyl)methyl]-4-isoquinolyl]benzoic acid]",,,inhibition at 1 µM (MNK1): 43%
NC1CCN(Cc2ccc3cncc(-c4cccc(C(=O)O)c4)c3c2)CC1 [Example 30],,,inhibition at 1 µM (MNK1): 34%

Structure (SMILES),IC50 [1],IC50 (MNK1),also measured
"NC1CCN(Cc2ccc3cncc(-c4ccc(NC(=O)Nc5ccccc5)cc4)c3c2)CC1 [Example 31, 1-[4-[6-[(4-Amino-1-piperidyl)methyl]-4-isoquinolyl]phenyl]-3-phenyl-urea]",2.19 µM,0.484 µM,
NC1CCN(Cc2ccc3cncc(-c4cccc(NC(=O)Nc5ccccc5)c4)c3c2)CC1 [Example 32],8.4 µM,2.41 µM,
"NCCCCNCc1ccc2cncc(-c3ccc(O)cc3)c2c1 [Example 35, 4-[6-[(4-Aminobutylamino)methyl]-4-isoquinolyl]phenol]",11.8 µM,,inhibition at 1 µM (MNK1): 56%
Oc1ccc(-c2cncc3ccc(CNC4CCCNC4)cc23)cc1 (stereo not drawn) [Example 39],,0.496 µM,
"c1cncc(NCc2ccc3cncc(-c4cc5ccccc5o4)c3c2)c1 [Example 60, N-[[4-(Benzofuran-2-yl)-6-isoquinolyl]methyl]pyridin-3-amine]",,0.135 µM,
Clc1cc(NCc2ccc3cncc(-c4cc5ccccc5o4)c3c2)ccn1 [Example 62],,2.14 µM,
Fc1cc(NCc2ccc3cncc(-c4cc5ccccc5o4)c3c2)ccn1 [Example 63],,0.068 µM,
COc1cc(NCc2ccc3cncc(-c4cc5ccccc5o4)c3c2)ccn1 [Example 65],,0.157 µM,
"N[C@H]1CC[C@@H](Nc2ccc3cncc(-c4cc5ccccc5o4)c3c2)CC1 [Example 81, N4-[4-(Benzofuran-2-yl)-6-isoquinolyl]cyclohexane-1,4-diamine]",2.21 µM,,
c1ccc2oc(-c3cncc4ccc(NC5CCNCC5)cc34)cc2c1 [Example 82],2.17 µM,,
N[C@H]1CC[C@H](Nc2ccc3c(=O)[nH]cc(-c4ccccc4)c3c2)CC1 [Example 88],,0.171 µM,
"O=c1[nH]cc(-c2cc3ccccc3o2)c2cc(NCc3ccncc3)ccc12 [Example 89, 4-(Benzofuran-2-yl)-6-(4-pyridylmethylamino)-2H-isoquinolin-1-one]",,,inhibition at 10 µM (MNK1): 35%
O=c1[nH]cc(-c2ccccc2)c2cc(NCc3ccncc3)ccc12 [Example 90],,1.06 µM,
"c1ccc2oc(-c3cncc4ccc(CNc5ccnnc5)cc34)cc2c1 [Example 131, N-[[4-(benzofuran-2-yl)-6-isoquinolyl]methyl]pyridazin-4-amine]",,0.024 µM,
"Nc1cc[n+](Cc2ccc3cnc(N)c(-c4cc5ccccc5o4)c3c2)cc1 [Example 166, 6-[(4-Aminopyridin-1-ium-1-yl)methyl]-4-(benzofuran-2-yl)isoquinolin-3-amine trifluoroacetate]",,0.057 µM,
Nc1ncc(-c2cc3ccccc3o2)c2cc(O[C@H]3CC[C@H](N)CC3)cc(Cl)c12 [Example 320],,0.094 µM,

# Continued, in another order:
IC50 [1],IC50 (MNK1),Structure (SMILES),also measured
34.6 µM,0.093 µM,Nc1ccc(-c2cncc3ccc(CN4CCC(N)CC4)cc23)cc1 [Example 2],
20.6 µM,0.847 µM,Nc1cccc(-c2cncc3ccc(CN4CCC(N)CC4)cc23)c1 [Example 3],
26 µM,0.334 µM,N#Cc1ccc(-c2cncc3ccc(CN4CCC(N)CC4)cc23)cc1 [Example 4],
32.6 µM,,N#Cc1cccc(-c2cncc3ccc(CN4CCC(N)CC4)cc23)c1 [Example 5],inhibition at 1 µM (MNK1): 39%
17.5 µM,0.744 µM,NC1CCN(Cc2ccc3cncc(-c4ccccc4)c3c2)CC1 [Example 7],
10.8 µM,0.258 µM,NC1CCN(Cc2ccc3cncc(-c4ccc(Cl)cc4)c3c2)CC1 [Example 9],
11.7 µM,0.325 µM,NC1CCN(Cc2ccc3cncc(-c4cccc(Cl)c4)c3c2)CC1 [Example 10],
10.1 µM,,COC(=O)c1ccc(-c2cncc3ccc(CN4CCC(N)CC4)cc23)cc1 [Example 11],inhibition at 1 µM (MNK1): 33%
24.3 µM,0.285 µM,NC1CCN(Cc2ccc3cncc(-c4ccncc4)c3c2)CC1 [Example 13],
,1.91 µM,Nc1cc(-c2cncc3ccc(CN4CCC(N)CC4)cc23)ccn1 [Example 16],inhibition at 100 µM [1]: 67%
30.4 µM,0.459 µM,"CC(=O)Nc1ccc(-c2cncc3ccc(CN4CCC(N)CC4)cc23)cc1 [Example 18, N-[4-[6-[(4-Amino-1-piperidyl)methyl]-4-isoquinolyl]phenyl]acetamide]",
29.7 µM,,CC(=O)Nc1cccc(-c2cncc3ccc(CN4CCC(N)CC4)cc23)c1 [Example 19],inhibition at 1 µM (MNK1): 39%
,0.866 µM,"NC(=O)Nc1ccc(-c2cncc3ccc(CN4CCC(N)CC4)cc23)cc1 [Example 33, [4-[6-[(4-Amino-1-piperidyl)methyl]-4-isoquinolyl]phenyl]urea]",
,1.09 µM,NC(=O)Nc1cccc(-c2cncc3ccc(CN4CCC(N)CC4)cc23)c1 [Example 34],
